In patent US11807835B2, “Detergent compositions containing a stabilized enzyme by phosphonates” (ECOLAB USA INC., priority 2016, dated 2023):

Tests used:
amylase = assay: Amylase activity retention in detergent use solution (4000 ppm, 5 GPG water; ethylidene substrate EPS, HEPES buffer pH 8.0); assay type: biochemical
Outline: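 Detergent use solution at 4000 ppm in 5 GPG water held at 120° F.; aliquots taken up to 4 h, flash-frozen, then assayed with p-nitrophenyl valerate in TRIS pH 8.0 (lipase) or EPS substrate in HEPES pH 8.0 (amylase). Retention given as % activity relative to t=0.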

lipase = assay: Lipase activity retention in detergent use solution (4000 ppm, 5 GPG water; p-nitrophenyl valerate, TRIS buffer pH 8.0); assay type: biochemical; conditions: Table 6E, phosphonate 0.3 wt-%, room temperature
Outline: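 Lipase stability was measured in a detergent use solution under conditions mimicking presoak or manual warewash, with stirring in a water bath. Aliquots were taken over time and flash-frozen. Thawed samples were diluted in TRIS buffer at pH 8.0 and assayed with p-nitrophenyl valerate as substrate on a plate reader. Activity is reported as % retained relative to the time=0 sample.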

O=C(O)CCC(CC(=O)O)(C(=O)O)P(=O)(O)O (stereo not drawn) [PBTC, Phosphonebutane tricarboxylic acid]
Relative Amylase Enzyme Activity (amylase; All Ash formula, phosphonate 0.3 wt-%, use solution at 120° F., time 0 min): 98.88% | Relative Amylase Enzyme Activity (amylase; All Ash formula, phosphonate 0.3 wt-%, use solution at 120° F., time 5 min): 100.00% | Relative Amylase Enzyme Activity (amylase; All Ash formula, phosphonate 0.3 wt-%, use solution at 120° F., time 10 min): 94.76% | Relative Amylase Enzyme Activity (amylase; All Ash formula, phosphonate 0.3 wt-%, use solution at 120° F., time 20 min): 90.04% | Relative Amylase Enzyme Activity (amylase; All Ash formula, phosphonate 0.3 wt-%, use solution at 120° F., time 40 min): 63.67% | Relative Amylase Enzyme Activity (amylase; All Ash formula, phosphonate 0.3 wt-%, use solution at 120° F., time 60 min): 58.65% | Relative Amylase Enzyme Activity (amylase; All Ash formula, phosphonate 0.3 wt-%, use solution at 120° F., time 90 min): 54.03% | Relative Amylase Enzyme Activity (amylase; All Ash formula, phosphonate 0.3 wt-%, use solution at 120° F., time 120 min): 45.38% | Relative Amylase Enzyme Activity (amylase; All Ash formula, phosphonate 0.3 wt-%, use solution at 120° F., time 150 min): 44.40% | Relative Amylase Enzyme Activity (amylase; All Ash formula, phosphonate 0.3 wt-%, use solution at 120° F., time 180 min): 41.15% | Relative Amylase Enzyme Activity (amylase; All Ash formula, phosphonate 0.3 wt-%, use solution at 120° F., time 210 min): 41.56% | Relative Amylase Enzyme Activity (amylase; All Ash formula, phosphonate 0.3 wt-%, use solution at 120° F., time 240 min): 40.40% | Relative Amylase Enzyme Activity (amylase; base formula, phosphonate 0.3 wt-%, use solution at 120° F., time 0 min): 100.00% | Relative Amylase Enzyme Activity (amylase; base formula, phosphonate 0.3 wt-%, use solution at 120° F., time 5 min): 96.90% | Relative Amylase Enzyme Activity (amylase; base formula, phosphonate 0.3 wt-%, use solution at 120° F., time 10 min): 94.03% | Relative Amylase Enzyme Activity (amylase; base formula, phosphonate 0.3 wt-%, use solution at 120° F., time 20 min): 86.69% | Relative Amylase Enzyme Activity (amylase; base formula, phosphonate 0.3 wt-%, use solution at 120° F., time 40 min): 83.68% | Relative Amylase Enzyme Activity (amylase; base formula, phosphonate 0.3 wt-%, use solution at 120° F., time 60 min): 86.51% | Relative Amylase Enzyme Activity (amylase; base formula, phosphonate 0.3 wt-%, use solution at 120° F., time 90 min): 84.89% | Relative Amylase Enzyme Activity (amylase; base formula, phosphonate 0.3 wt-%, use solution at 120° F., time 120 min): 85.85% | Relative Amylase Enzyme Activity (amylase; base formula, phosphonate 0.3 wt-%, use solution at 120° F., time 150 min): 76.25% | Relative Amylase Enzyme Activity (amylase; base formula, phosphonate 0.3 wt-%, use solution at 120° F., time 180 min): 81.01% | Relative Amylase Enzyme Activity (amylase; base formula, phosphonate 0.3 wt-%, use solution at 120° F., time 210 min): 81.99% | Relative Amylase Enzyme Activity (amylase; base formula, phosphonate 0.3 wt-%, use solution at 120° F., time 240 min): 81.88% | Relative Amylase Enzyme Activity (amylase; base formula, phosphonate 0.6 wt-%, use solution at 120º F., time 0 min): 100.00% | Relative Amylase Enzyme Activity (amylase; base formula, phosphonate 0.6 wt-%, use solution at 120º F., time 5 min): 107.86% | Relative Amylase Enzyme Activity (amylase; base formula, phosphonate 0.6 wt-%, use solution at 120º F., time 10 min): 111.05% | Relative Amylase Enzyme Activity (amylase; base formula, phosphonate 0.6 wt-%, use solution at 120º F., time 20 min): 106.52% | Relative Amylase Enzyme Activity (amylase; base formula, phosphonate 0.6 wt-%, use solution at 120º F., time 40 min): 73.11% | Relative Amylase Enzyme Activity (amylase; base formula, phosphonate 0.6 wt-%, use solution at 120º F., time 60 min): 79.10% | Relative Amylase Enzyme Activity (amylase; base formula, phosphonate 0.6 wt-%, use solution at 120º F., time 90 min): 71.11% | Relative Amylase Enzyme Activity (amylase; base formula, phosphonate 0.6 wt-%, use solution at 120º F., time 120 min): 64.98% | Relative Amylase Enzyme Activity (amylase; base formula, phosphonate 0.6 wt-%, use solution at 120º F., time 150 min): 74.97% | Relative Amylase Enzyme Activity (amylase; base formula, phosphonate 0.6 wt-%, use solution at 120º F., time 180 min): 85.22% | Relative Amylase Enzyme Activity (amylase; base formula, phosphonate 0.6 wt-%, use solution at 120º F., time 210 min): 94.67% | Relative Amylase Enzyme Activity (amylase; base formula, phosphonate 0.6 wt-%, use solution at 120º F., time 240 min): 97.07% | Relative Amylase Enzyme Activity (amylase; base formula, phosphonate at 0.1% elemental phosphorus level, use solution at 120º F., time 0 min): 90.07% | Relative Amylase Enzyme Activity (amylase; base formula, phosphonate at 0.1% elemental phosphorus level, use solution at 120º F., time 5 min): 100.00% | Relative Amylase Enzyme Activity (amylase; base formula, phosphonate at 0.1% elemental phosphorus level, use solution at 120º F., time 10 min): 98.00% | Relative Amylase Enzyme Activity (amylase; base formula, phosphonate at 0.1% elemental phosphorus level, use solution at 120º F., time 20 min): 89.44% | Relative Amylase Enzyme Activity (amylase; base formula, phosphonate at 0.1% elemental phosphorus level, use solution at 120º F., time 40 min): 90.60% | Relative Amylase Enzyme Activity (amylase; base formula, phosphonate at 0.1% elemental phosphorus level, use solution at 120º F., time 60 min): 86.05% | Relative Amylase Enzyme Activity (amylase; base formula, phosphonate at 0.1% elemental phosphorus level, use solution at 120º F., time 90 min): 90.47% | Relative Amylase Enzyme Activity (amylase; base formula, phosphonate at 0.1% elemental phosphorus level, use solution at 120º F., time 120 min): 89.11% | Relative Amylase Enzyme Activity (amylase; base formula, phosphonate at 0.1% elemental phosphorus level, use solution at 120º F., time 150 min): 88.36% | Relative Amylase Enzyme Activity (amylase; base formula, phosphonate at 0.1% elemental phosphorus level, use solution at 120º F., time 180 min): 82.80% | Relative Amylase Enzyme Activity (amylase; base formula, phosphonate at 0.1% elemental phosphorus level, use solution at 120º F., time 210 min): 84.45% | Relative Amylase Enzyme Activity (amylase; base formula, phosphonate at 0.1% elemental phosphorus level, use solution at 120º F., time 240 min): 91.39% | Relative Lipase Enzyme Activity in a Use Solution (lipase; time 0 min): 100.00% | Relative Lipase Enzyme Activity in a Use Solution (lipase; time 5 min): 84.82% | Relative Lipase Enzyme Activity in a Use Solution (lipase; time 10 min): 101.70% | Relative Lipase Enzyme Activity in a Use Solution (lipase; time 20 min): 98.72% | Relative Lipase Enzyme Activity in a Use Solution (lipase; time 40 min): 109.31% | Relative Lipase Enzyme Activity in a Use Solution (lipase; time 60 min): 103.07%
